{"source": "paper PMC9827845", "about": "“Active Pharmaceutical Ingredient Uptake by Zebrafish (Danio rerio) Oct2 (slc22a2) Transporter Expressed in Xenopus laevis Oocytes” (Environmental Toxicology and Chemistry, 2022)", "molecules": {"B1": {"name": "Oct2 (slc22a2) (Danio rerio) (protein)", "chain": "MTTFEEILEEAGTFGRSQIRIFCTFCLVSIPFSFVYVGIVFQGFTPEHWCRDPGVSEIRERCGWSLQDARRATVPLINGSSGASYSQCGRFDVDWNATGLSCENPDGDFNQSQLSVMPMMSCVDGWEYDYVGRQSFVTEFDLVCGDAWYVDMFQATLSIGFLVGSIAIGYLADKYGRMKSFLMTNFFIGVTGILVATSPNYISLLVFRALFGFGVKGGWMVGYVLITELVGVDHRRTVGVTYQLFFSMGILLLPLLAYFITNWRWLQVVFTVPYICFLTYYWFIPESPRWLLTQNKIAEAVEITKSIAKENRKTLSKKIETLKDDNIDSGSTASFMDLFKTAKLRTYTFILSFNWFTSAVVYQGLIMRLGILGGNVYVDFLISGIVELPAAFLILLTIERIGRRLPFATANIVAGAACLITAFIPDSMFWLKSAVACVGRLGITMAFEMVVFVNTELYPTVIRNLGVSVCSTLCDVGGIVAPFLLYRLAVIWLELPLIIFGALAFVAGGLVLLLPETKGVPLPETIDDIEHPNRNKENPQQSQQLENLMTSDVTKNKDVTAV"}}, "key": {"Oct2 (slc22a2) [1]": {"target": "T1, Oct2 (slc22a2) (Danio rerio, UniProt Q7T2C0)", "T1 construct": "complete Danio rerio slc22a2 cDNA clone (zgc:64076; IRBOp991A024D; oct2)", "T1 sequence (Q7T2C0 1-562)": "B1 chain", "assay": "radiolabelled uptake in Xenopus oocytes expressing zebrafish oct2 versus sham", "format": "cell-based"}, "Oct2 (slc22a2) [2]": {"target": "T1, Oct2 (slc22a2)", "assay": "inhibition of […] TEA uptake at […] in Xenopus oocytes expressing zebrafish oct2", "format": "cell-based"}, "[3]": {"substrate": "CNC(=C[N+](=O)[O-])NCCSCc1ccc(CN(C)C)o1", "assay": "cells, lysate or membranes"}, "[4]": {"substrate": "CC(C)NCC(O)COc1cccc2ccccc12", "assay": "cells, lysate or membranes"}}, "data": [{"molecule": "CC[N+](CC)(CC)CC", "note": "[TEA, tetraethylammonium]", "values": [{"measurement": "radiolabelled uptake in Xenopus oocytes expressing zebrafish oct2 versus sham", "setting": "Oct2 (slc22a2) [1]", "result": "zebrafish oct2 when expressed in Xenopus oocytes can facilitate the transport of ranitidine, propranolol, and TEA"}]}, {"molecule": "NC12CC3CC(CC(C3)C1)C2", "note": "[amantadine]", "values": [{"measurement": "inhibition of 200 μM TEA uptake at 2 mM in Xenopus oocytes expressing zebrafish", "setting": "Oct2 (slc22a2) [2]", "result": "Uptake of tetraethylammonium (TEA) was inhibited by propranolol, amantadine, and cimetidine"}]}, {"molecule": "B1", "values": [{"measurement": "Km", "setting": "[3]", "result": 246.1, "unit": "µM"}, {"measurement": "Km", "setting": "[4]", "result": 408.9, "unit": "µM"}]}]}
